Experimental data as given in patent US11021470B2, “2-substituted quinazoline compounds comprising a substituted heterocyclic group and methods of use thereof” (Araxes Pharma LLC, priority 2015, dated 2021).

Target: T1, KRAS G12C 1-169, his-tagged protein, GDP-loaded (Homo sapiens, UniProt P01116, G12C)
T1 construct: KRAS G12C 1-169, his-tagged protein, GDP-loaded
Experiment: KRAS G12C covalent binding (% modification) by mass spectrometry, ten or three minute incubation
Outline: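 GDP-loaded protein in 20 mM Hepes, 150 mM NaCl, 1 mM MgCl2 was incubated with compound (final 100, 30 or 10 μM; 2% DMSO) at room temperature, then quenched with formic acid. Intact-protein LC-MS with charge-envelope deconvolution gave masses and intensities of modified and unmodified species.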

[1] = covalent binding to KRAS G12C, % modification after a three minute incubation period
[2] = covalent binding to KRAS G12C after a ten minute incubation period

SMILES	Binding % [1]	Binding % [2]
C=CC(=O)N1C[C@H](C)N(c2nc(N3CC(N(C)CCCCCN=[N+]=[N-])C3)nc3c(F)c(-c4c(O)cccc4F)c(Cl)cc23)C[C@H]1C [Compound 301, 1-((2R,5S)-4-(2-(3-((5-azidopentyl)(methyl)amino)azetidin-1-yl)-6-chloro-8-fluoro-7-(2-fluoro-6-hydroxyphenyl)quinazolin-4-yl)-2,5-dimethylpiperazin-1-yl)prop-2-en-1-one]	++ (++ indicates binding activity from 50 to 90%)	–
C=CC(=O)N1C[C@@H](C)N(c2nc(N3CC(N(C)C)C3)nc3c(F)c(-c4c(O)cccc4F)c(Cl)cc23)C[C@@H]1C [Compound 87, 1-((2S,5R)-4-(6-chloro-2-(3-(dimethylamino)azetidin-1-yl)-8-fluoro-7-(2-fluoro-6-hydroxyphenyl)quinazolin-4-yl)-2,5-dimethylpiperazin-1-yl)prop-2-en-1-one]	+ (+ indicates binding activity greater than 0% and up to 50%)	–
[2H]C([2H])([2H])N(C1CN(c2nc(N3C[C@@H](C)N(C(=O)C=C)C[C@@H]3C)c3cc(Cl)c(-c4c(O)cccc4F)c(F)c3n2)C1)C([2H])([2H])[2H] (atropisomer, axis not shown) [Compound 212, 1-((2R,5S)-4-(2-(3-(bis(tridueteromethyl)amino)azetidin-1-yl)-6-chloro-8-fluoro-7-((R)-2-fluoro-6-hydroxyphenyl)quinazolin-4-yl)-2,5-dimethylpiperazin-1-yl)prop-2-en-1-one]	+ (+ indicates binding activity greater than 0% and up to 50%)	–
[2H]C([2H])([2H])N(C1CN(c2nc(N3C[C@@H](C)N(C(=O)C=C)C[C@@H]3C)c3cc(Cl)c(-c4c(C)ccc5[nH]ncc45)c(F)c3n2)C1)C([2H])([2H])[2H] (atropisomer, axis not shown) [Compound 226, 1-((2R,5S)-4-(6-chloro-2-(3-(bis(tridueteromethyl)amino)azetidin-1-yl)-8-fluoro-7-((R)-5-methyl-1H-indazol-4-yl)quinazolin-4-yl)-2,5-dimethylpiperazin-1-yl)prop-2-en-1-one]	+++ (+++ indicates binding activity greater than 90%)	–
C=CC(=O)N1C[C@H](C)N(c2nc(OCCN(CC)CC)nc3c(F)c(-c4c(O)cccc4F)c(Cl)cc23)C[C@H]1C [Compound 48, 1-((2R,5S)-4-(6-chloro-2-(2-(diethylamino)ethoxy)-8-fluoro-7-(2-fluoro-6-hydroxyphenyl)quinazolin-4-yl)-2,5-dimethylpiperazin-1-yl)prop-2-en-1-one]	–	++ (++ indicates binding activity from 50 to 90%)
C=CC(=O)N1C[C@H](C)N(c2nc(N3CC(N(C)C)C3)nc3c(F)c(-c4c(C)ccc5[nH]nc(C)c45)c(Cl)cc23)C[C@H]1C [Compound 252, 1-((2R,5S)-4-(6-chloro-7-(3,5-dimethyl-1H-indazol-4-yl)-2-(3-(dimethylamino)azetidin-1-yl)-8-fluoroquinazolin-4-yl)-2,5-dimethylpiperazin-1-yl)prop-2-en-1-one]	+++ (+++ indicates binding activity greater than 90%)	–
C=CC(=O)N1C[C@H](C)N(c2nc(N3CC(N(C)C)C3)nc3c(F)c(-c4c(O)cccc4F)c(C(F)(F)F)cc23)C[C@H]1C (atropisomer, axis not shown) [Compound 269, 1-((2R,5S)-4-(2-(3-(dimethylamino)azetidin-1-yl)-8-fluoro-7-((S)-2-fluoro-6-hydroxyphenyl)-6-(trifluoromethyl)quinazolin-4-yl)-2,5-dimethylpiperazin-1-yl)prop-2-en-1-one]	+ (+ indicates binding activity greater than 0% and up to 50%)	–
C=CC(=O)N1C[C@@H](C)N(c2nc(N3CC(N(C)C)C3)nc3c(F)c(-c4c(O)cccc4F)c(Cl)cc23)C[C@H]1C [Compound 86, 1-((2R,5R)-4-(6-chloro-2-(3-(dimethylamino)azetidin-1-yl)-8-fluoro-7-(2-fluoro-6-hydroxyphenyl)quinazolin-4-yl)-2,5-dimethylpiperazin-1-yl)prop-2-en-1-one]	+ (+ indicates binding activity greater than 0% and up to 50%)	–
C=CC(=O)N1C[C@H](C)N(c2nc(OCCO)nc3c(F)c(-c4c(O)cccc4F)c(Cl)cc23)C[C@H]1C [Compound 253, 1-((2R,5S)-4-(6-chloro-8-fluoro-7-(2-fluoro-6-hydroxyphenyl)-2-(2-hydroxyethoxy)quinazolin-4-yl)-2,5-dimethylpiperazin-1-yl)prop-2-en-1-one]	++ (++ indicates binding activity from 50 to 90%)	–
C=CC(=O)N1CCN(c2nc(OCCc3ncccn3)nc3c(F)c(-c4c(O)cccc4F)c(Cl)cc23)C[C@H]1C (atropisomer, axis not shown) [Compound 268, 1-((R)-4-(6-chloro-8-fluoro-7-((S)-2-fluoro-6-hydroxyphenyl)-2-(2-(pyrimidin-2-yl)ethoxy)quinazolin-4-yl)-2-methylpiperazin-1-yl)prop-2-en-1-one]	+++ (+++ indicates binding activity greater than 90%)	–
C=CC(=O)N1CCN(c2nc(N3CC(N(C)C)C3)nc3c(F)c(-c4c(O)cccc4F)c(Cl)cc23)C[C@H]1C (atropisomer, axis not shown) [Compound 61, 1-((R)-4-((R)-6-chloro-2-(3-(dimethylamino)azetidin-1-yl)-8-fluoro-7-(2-fluoro-6-hydroxyphenyl)quinazolin-4-yl)-2-methylpiperazin-1-yl)prop-2-en-1-one]	–	++ (++ indicates binding activity from 50 to 90%)
C=CC(=O)N1C[C@H](C)N(c2nc(N3CC(N(C)C)C3)nc3c(F)c(-c4c(O)cccc4F)c(Cl)cc23)C[C@@H]1C [Compound 94, 1-((2S,5S)-4-(6-chloro-2-(3-(dimethylamino)azetidin-1-yl)-8-fluoro-7-(2-fluoro-6-hydroxyphenyl)quinazolin-4-yl)-2,5-dimethylpiperazin-1-yl)prop-2-en-1-one]	+ (+ indicates binding activity greater than 0% and up to 50%)	–
C=CC(=O)N1C[C@H](C)N(c2nc(OCCN(CC)CC)nc3c(F)c(-c4c(O)cccc4F)c(Cl)cc23)C[C@H]1C (atropisomer, axis not shown) [Compound 74, 1-((2R,5S)-4-((R)-6-chloro-2-(2-(diethylamino)ethoxy)-8-fluoro-7-(2-fluoro-6-hydroxyphenyl)quinazolin-4-yl)-2,5-dimethylpiperazin-1-yl)prop-2-en-1-one]	–	++ (++ indicates binding activity from 50 to 90%)
C=CC(=O)N1C[C@H](C)N(c2nc(N3CC(N(C)C)C3)nc3c(F)c(-c4c(F)ccc(Cl)c4O)c(Cl)cc23)C[C@H]1C [Compound 260, 1-((2R,5S)-4-(6-chloro-7-(3-chloro-6-fluoro-2-hydroxyphenyl)-2-(3-(dimethylamino)azetidin-1-yl)-8-fluoroquinazolin-4-yl)-2,5-dimethylpiperazin-1-yl)prop-2-en-1-one]	++ (++ indicates binding activity from 50 to 90%)	–
C=CC(=O)N1CCN(c2nc(N3CC(N(C)C)C3)nc3c(F)c(-c4c(O)cccc4F)c(C(F)(F)F)cc23)C[C@H]1C (atropisomer, axis not shown) [Compound 272, 1-((R)-4-(2-(3-(dimethylamino)azetidin-1-yl)-8-fluoro-7-((R)-2-fluoro-6-hydroxyphenyl)-6-(trifluoromethyl)quinazolin-4-yl)-2-methylpiperazin-1-yl)prop-2-en-1-one]	+++ (+++ indicates binding activity greater than 90%)	–
C=CC(=O)N1C[C@H](C)N(c2nc(OCCn3ccnc3C)nc3c(F)c(-c4c(O)cccc4F)c(Cl)cc23)C[C@H]1C (atropisomer, axis not shown) [Compound 264, 1-((2R,5S)-4-(6-chloro-8-fluoro-7-((S)-2-fluoro-6-hydroxyphenyl)-2-(2-(2-methyl-1H-imidazol-1-yl)ethoxy)quinazolin-4-yl)-2,5-dimethylpiperazin-1-yl)prop-2-en-1-one]	+++ (+++ indicates binding activity greater than 90%)	–
C=CC(=O)N1C[C@H](C)N(c2nc(N3CC(N(C)C)C3)nc3c(F)c(-c4n[nH]c5ccccc45)c(Cl)cc23)C[C@H]1C [Compound 295, 1-((2R,5S)-4-(6-chloro-2-(3-(dimethylamino)azetidin-1-yl)-8-fluoro-7-(1H-indazol-3-yl)quinazolin-4-yl)-2,5-dimethylpiperazin-1-yl)prop-2-en-1-one]	+ (+ indicates binding activity greater than 0% and up to 50%)	–
C=CC(=O)N1C[C@H](C)N(c2nc(N3CC(N(C)C)C3)nc3c(F)c(-c4c[nH]c5cccc(C)c45)c(Cl)cc23)C[C@H]1C [Compound 291, 1-((2R,5S)-4-(6-chloro-2-(3-(dimethylamino)azetidin-1-yl)-8-fluoro-7-(4-methyl-1H-indol-3-yl)quinazolin-4-yl)-2,5-dimethylpiperazin-1-yl)prop-2-en-1-one]	+ (+ indicates binding activity greater than 0% and up to 50%)	–
C=CC(=O)N1C[C@H](C)N(c2nc(OCCn3ccnc3C#N)nc3c(F)c(-c4c(C)ccc5[nH]ncc45)c(Cl)cc23)C[C@H]1C [Compound 279, 1-(2-((4-((2S,5R)-4-acryloyl-2,5-dimethylpiperazin-1-yl)-6-chloro-8-fluoro-7-(5-methyl-1H-indazol-4-yl)quinazolin-2-yl)oxy)ethyl)-1H-imidazole-2-carbonitrile]	++ (++ indicates binding activity from 50 to 90%)	–
C=CC(=O)N1C[C@H](C)N(c2nc(N3CC(N(C)C)C3)nc3c(F)c(-c4c(F)ccc5cn[nH]c45)c(Cl)cc23)C[C@H]1C [Compound 261, 1-((2R,5S)-4-(6-chloro-2-(3-(dimethylamino)azetidin-1-yl)-8-fluoro-7-(6-fluoro-1H-indazol-7-yl)quinazolin-4-yl)-2,5-dimethylpiperazin-1-yl)prop-2-en-1-one]	+++ (+++ indicates binding activity greater than 90%)	–
